In assay [1] the target is T1, Lysosomal acid glucosylceramidase (Homo sapiens, UniProt P04062).
T1 sequence (P04062 whole entry): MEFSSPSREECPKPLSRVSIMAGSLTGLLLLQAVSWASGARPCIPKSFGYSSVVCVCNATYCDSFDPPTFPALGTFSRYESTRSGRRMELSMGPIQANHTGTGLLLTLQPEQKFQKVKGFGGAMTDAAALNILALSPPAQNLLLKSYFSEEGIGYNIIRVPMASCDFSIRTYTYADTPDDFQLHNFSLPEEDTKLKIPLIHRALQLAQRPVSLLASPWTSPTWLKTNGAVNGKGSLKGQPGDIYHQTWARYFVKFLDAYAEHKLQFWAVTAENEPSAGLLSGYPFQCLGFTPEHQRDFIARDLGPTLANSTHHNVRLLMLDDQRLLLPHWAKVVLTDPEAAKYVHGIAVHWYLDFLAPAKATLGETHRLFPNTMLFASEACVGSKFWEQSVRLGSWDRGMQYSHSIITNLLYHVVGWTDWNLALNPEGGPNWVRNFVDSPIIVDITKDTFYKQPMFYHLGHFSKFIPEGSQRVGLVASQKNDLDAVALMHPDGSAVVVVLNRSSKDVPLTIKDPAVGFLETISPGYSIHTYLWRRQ

Another assay has as its target T2, Beta-glucosidase (Homo sapiens, UniProt Q9HCG7).
T2 sequence (Q9HCG7 whole entry): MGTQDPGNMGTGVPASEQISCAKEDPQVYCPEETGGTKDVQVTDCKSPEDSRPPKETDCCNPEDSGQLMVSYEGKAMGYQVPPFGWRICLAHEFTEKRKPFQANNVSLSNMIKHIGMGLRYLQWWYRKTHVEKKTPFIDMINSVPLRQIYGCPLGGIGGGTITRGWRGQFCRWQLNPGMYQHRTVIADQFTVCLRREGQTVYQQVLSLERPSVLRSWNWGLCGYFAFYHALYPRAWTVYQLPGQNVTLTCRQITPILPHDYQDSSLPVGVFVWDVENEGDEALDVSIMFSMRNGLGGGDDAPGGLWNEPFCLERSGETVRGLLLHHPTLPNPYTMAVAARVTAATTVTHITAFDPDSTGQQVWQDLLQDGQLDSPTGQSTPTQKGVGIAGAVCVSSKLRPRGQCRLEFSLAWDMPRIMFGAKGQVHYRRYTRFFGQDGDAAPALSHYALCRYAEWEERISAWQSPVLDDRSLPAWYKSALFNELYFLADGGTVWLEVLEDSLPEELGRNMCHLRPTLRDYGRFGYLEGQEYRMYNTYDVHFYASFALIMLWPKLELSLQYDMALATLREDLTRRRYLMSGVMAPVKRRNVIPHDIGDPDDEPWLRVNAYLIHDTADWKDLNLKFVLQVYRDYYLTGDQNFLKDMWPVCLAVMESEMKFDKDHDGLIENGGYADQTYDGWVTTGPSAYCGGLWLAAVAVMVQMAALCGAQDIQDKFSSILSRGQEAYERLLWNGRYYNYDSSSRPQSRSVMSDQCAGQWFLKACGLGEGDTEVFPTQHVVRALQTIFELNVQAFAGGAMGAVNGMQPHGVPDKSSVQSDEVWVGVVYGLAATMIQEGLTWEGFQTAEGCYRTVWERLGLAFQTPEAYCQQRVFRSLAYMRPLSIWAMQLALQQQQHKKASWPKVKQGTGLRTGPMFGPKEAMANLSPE

The target of assay [2] is T3, Ceramide glucosyltransferase (Homo sapiens, UniProt Q16739).
T3 sequence (Q16739 whole entry): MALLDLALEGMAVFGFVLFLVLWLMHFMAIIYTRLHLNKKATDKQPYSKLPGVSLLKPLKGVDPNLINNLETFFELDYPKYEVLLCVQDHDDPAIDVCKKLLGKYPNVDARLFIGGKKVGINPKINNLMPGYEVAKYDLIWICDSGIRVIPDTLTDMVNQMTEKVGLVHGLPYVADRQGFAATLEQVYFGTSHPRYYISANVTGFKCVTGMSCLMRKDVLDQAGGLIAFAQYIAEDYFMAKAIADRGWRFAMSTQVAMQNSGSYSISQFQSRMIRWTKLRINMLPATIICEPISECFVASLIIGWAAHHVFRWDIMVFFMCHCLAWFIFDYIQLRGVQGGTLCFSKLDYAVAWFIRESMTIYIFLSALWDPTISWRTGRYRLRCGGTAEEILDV

In a further assay the target is Maltase-glucoamylase (Homo sapiens, UniProt O43451). Briefly: Inhibition of intestinal maltase (unknown origin).
Assay [3] has as its target Sucrase-isomaltase, intestinal (Homo sapiens, UniProt P14410). Nature of the assay: Inhibition of intestinal sucrase (unknown origin).
Assay [4] deals with Lactase/phlorizin hydrolase (Homo sapiens, UniProt P09848). Nature of the assay: Inhibition of intestinal lactase (unknown origin).
Chain of Lactase/phlorizin hydrolase (P09848 869-1927 limits assumed): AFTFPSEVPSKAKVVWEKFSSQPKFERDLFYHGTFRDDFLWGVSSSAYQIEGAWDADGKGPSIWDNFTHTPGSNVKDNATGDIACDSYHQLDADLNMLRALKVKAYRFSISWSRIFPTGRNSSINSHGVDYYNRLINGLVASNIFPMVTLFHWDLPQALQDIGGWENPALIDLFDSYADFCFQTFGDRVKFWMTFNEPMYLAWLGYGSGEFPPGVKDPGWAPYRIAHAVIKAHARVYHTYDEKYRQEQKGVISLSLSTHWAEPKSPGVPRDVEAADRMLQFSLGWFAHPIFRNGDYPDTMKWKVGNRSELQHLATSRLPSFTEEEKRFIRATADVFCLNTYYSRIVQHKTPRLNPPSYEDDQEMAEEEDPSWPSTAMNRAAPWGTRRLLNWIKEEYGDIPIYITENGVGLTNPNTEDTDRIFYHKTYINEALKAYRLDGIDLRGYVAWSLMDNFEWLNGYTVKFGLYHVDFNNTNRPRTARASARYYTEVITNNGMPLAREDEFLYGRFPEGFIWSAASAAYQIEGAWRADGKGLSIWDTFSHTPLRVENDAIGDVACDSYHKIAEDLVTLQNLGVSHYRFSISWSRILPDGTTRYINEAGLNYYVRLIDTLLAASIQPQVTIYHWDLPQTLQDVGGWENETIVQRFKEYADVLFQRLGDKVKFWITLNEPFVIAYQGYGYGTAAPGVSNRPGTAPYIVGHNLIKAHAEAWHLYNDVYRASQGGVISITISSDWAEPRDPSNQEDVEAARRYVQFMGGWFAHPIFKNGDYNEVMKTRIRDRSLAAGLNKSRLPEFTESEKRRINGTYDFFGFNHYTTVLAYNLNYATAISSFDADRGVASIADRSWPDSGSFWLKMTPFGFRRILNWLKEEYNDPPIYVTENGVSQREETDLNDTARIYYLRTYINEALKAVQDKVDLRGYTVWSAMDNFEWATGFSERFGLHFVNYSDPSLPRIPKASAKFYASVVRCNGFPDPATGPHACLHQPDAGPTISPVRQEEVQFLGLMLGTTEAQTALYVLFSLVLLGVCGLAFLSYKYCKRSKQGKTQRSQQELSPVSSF

Chain of Sucrase-isomaltase, intestinal (P14410 2-1007 limits assumed): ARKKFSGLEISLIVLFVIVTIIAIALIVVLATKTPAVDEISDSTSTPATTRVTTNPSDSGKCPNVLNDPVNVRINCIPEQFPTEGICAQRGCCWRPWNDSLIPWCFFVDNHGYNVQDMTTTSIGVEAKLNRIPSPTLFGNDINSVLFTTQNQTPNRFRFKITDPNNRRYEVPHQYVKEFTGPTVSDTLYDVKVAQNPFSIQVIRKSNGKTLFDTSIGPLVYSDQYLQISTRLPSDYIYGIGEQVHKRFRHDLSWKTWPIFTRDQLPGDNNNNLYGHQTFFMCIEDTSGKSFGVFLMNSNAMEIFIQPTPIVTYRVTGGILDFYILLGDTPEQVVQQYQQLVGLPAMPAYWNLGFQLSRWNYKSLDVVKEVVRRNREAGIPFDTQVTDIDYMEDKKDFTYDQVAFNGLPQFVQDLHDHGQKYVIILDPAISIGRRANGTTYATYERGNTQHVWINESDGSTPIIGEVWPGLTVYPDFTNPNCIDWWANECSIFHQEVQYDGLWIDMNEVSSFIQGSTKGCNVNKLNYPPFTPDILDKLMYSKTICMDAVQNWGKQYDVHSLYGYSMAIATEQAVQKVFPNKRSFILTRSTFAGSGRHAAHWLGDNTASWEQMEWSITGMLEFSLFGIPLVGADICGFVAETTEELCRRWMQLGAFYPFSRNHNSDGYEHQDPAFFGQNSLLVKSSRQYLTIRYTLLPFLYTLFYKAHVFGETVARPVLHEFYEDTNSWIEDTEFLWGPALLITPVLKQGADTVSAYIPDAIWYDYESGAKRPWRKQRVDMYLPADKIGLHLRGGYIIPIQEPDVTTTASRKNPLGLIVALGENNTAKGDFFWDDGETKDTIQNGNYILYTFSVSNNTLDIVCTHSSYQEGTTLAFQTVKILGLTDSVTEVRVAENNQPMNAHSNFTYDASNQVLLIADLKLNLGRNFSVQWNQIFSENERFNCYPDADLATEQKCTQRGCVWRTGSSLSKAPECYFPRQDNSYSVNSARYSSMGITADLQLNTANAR
Chain of Sucrase-isomaltase, intestinal (P14410 1008-1827 limits assumed): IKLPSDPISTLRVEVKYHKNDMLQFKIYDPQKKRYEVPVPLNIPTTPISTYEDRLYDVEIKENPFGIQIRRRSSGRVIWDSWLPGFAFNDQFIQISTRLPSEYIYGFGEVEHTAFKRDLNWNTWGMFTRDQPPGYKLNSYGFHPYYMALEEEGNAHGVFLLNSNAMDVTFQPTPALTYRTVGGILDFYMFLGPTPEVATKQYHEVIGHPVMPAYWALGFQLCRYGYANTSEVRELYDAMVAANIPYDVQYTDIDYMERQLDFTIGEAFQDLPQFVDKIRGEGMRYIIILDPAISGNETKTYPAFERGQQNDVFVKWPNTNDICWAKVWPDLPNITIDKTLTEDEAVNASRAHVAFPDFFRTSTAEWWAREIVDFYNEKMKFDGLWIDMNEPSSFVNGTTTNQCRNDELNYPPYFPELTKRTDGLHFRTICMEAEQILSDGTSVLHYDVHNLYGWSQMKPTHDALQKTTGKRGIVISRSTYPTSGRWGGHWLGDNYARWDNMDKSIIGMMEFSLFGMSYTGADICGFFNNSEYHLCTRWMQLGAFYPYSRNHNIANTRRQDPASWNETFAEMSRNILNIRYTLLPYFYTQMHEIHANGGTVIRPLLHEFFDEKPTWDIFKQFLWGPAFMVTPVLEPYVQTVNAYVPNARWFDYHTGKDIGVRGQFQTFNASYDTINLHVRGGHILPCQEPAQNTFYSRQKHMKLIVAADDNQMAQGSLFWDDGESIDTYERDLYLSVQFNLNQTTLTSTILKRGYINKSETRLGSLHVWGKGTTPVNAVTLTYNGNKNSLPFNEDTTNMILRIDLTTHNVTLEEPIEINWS

Consider `O=C(CCCCCN1C[C@H](O)[C@@H](O)[C@H](O)[C@H]1CO)NC12CC3CC(CC(C3)C1)C2`, for which the IC50 (usually the concentration needed to halve the response being measured) came to 0.5 µM in assay [1], 0.009 µM at Beta-glucosidase and 1 µM in assay [2].
The matching figures for `OC[C@@H]1[C@@H](O)[C@H](O)[C@@H](O)CN1CCCCCOCC1CCCCC1`: 1.5 µM, 0.004 µM and 0.5 µM.
The matching figures for `OC[C@@H]1[C@@H](O)[C@H](O)[C@@H](O)CN1CCCCCCOCC12CC3CC(CC(C3)C1)C2`: 0.2 µM, 0.002 µM and 0.3 µM.
As to `CC(C)CCC[C@@H](C)[C@H]1CC[C@H]2[C@@H]3CC=C4C[C@@H](OCCCCCN5C[C@H](O)[C@@H](O)[C@H](O)[C@H]5CO)CC[C@]4(C)[C@H]3CC[C@]12C`, the IC50 in assay [1] amounted to 0.5 µM; against Beta-glucosidase it was 0.005 µM; in assay [2] it was 1 µM.
In the case of `OC[C@@H]1[C@@H](O)[C@H](O)[C@@H](O)CN1CCCCCOCC1C2CC3CC(C2)CC1C3` (some centres not stated), the results for the IC50 (in assay [1]; against Beta-glucosidase; in assay [2]) were 0.4 µM, 0.001 µM and 0.3 µM, respectively.
The corresponding values for `OC[C@@H]1[C@@H](O)[C@H](O)[C@@H](O)CN1CCCCCOCc1ccccc1` are 0.3 µM, 0.001 µM and 0.75 µM.
With `OC[C@@H]1[C@@H](O)[C@H](O)[C@@H](O)CN1CCCCCOCc1ccc2ccccc2c1`, the IC50 was 1 µM in assay [1], 0.001 µM against Beta-glucosidase and 0.003 µM in assay [2].
The matching figures for `OC[C@@H]1[C@@H](O)[C@H](O)[C@@H](O)CN1CCCCCOCc1ccc2ccc3cccc4ccc1c2c34`: 0.5 µM, 0.003 µM and 0.003 µM.
For the molecule `OC[C@@H]1[C@@H](O)[C@H](O)[C@@H](O)CN1CCCCCOCc1ccc(-c2ccccc2)cc1`, the figures for the concentration for half-maximal inhibition (IC50) (at Maltase-glucoamylase; in assay [3]) were 2 µM and 0.25 µM, respectively.
As to `OC[C@H]1[C@@H](O)[C@H](O)[C@@H](O)CN1CCCCCOCC1CCCCC1`, the IC50 in assay [1] was found to be 60 µM; against Beta-glucosidase, 0.006 µM; in assay [2], 0.07 µM.
The corresponding values for `O=C(CCCCCN1C[C@H](O)[C@@H](O)[C@H](O)[C@@H]1CO)NC12CC3CC(CC(C3)C1)C2` are 40 µM, 0.015 µM and 0.4 µM.
`OC[C@H]1[C@@H](O)[C@H](O)[C@@H](O)CN1CCCCCCOCC12CC3CC(CC(C3)C1)C2`: the IC50 turned out to be 5 µM in assay [1], 0.0025 µM on Beta-glucosidase and 0.25 µM in assay [2].
Consider `CC(C)CCC[C@@H](C)[C@H]1CC[C@H]2[C@@H]3CC=C4C[C@@H](OCCCCCN5C[C@H](O)[C@@H](O)[C@H](O)[C@@H]5CO)CC[C@]4(C)[C@H]3CC[C@]12C`, for which the IC50 in assay [1] is 15 µM; against Beta-glucosidase, 0.02 µM; in assay [2] it was 1 µM.
The corresponding values for `OC[C@H]1[C@@H](O)[C@H](O)[C@@H](O)CN1CCCCCOCC1C2CC3CC(C2)CC1C3` (some centres not stated) are 10 µM, 0.002 µM and 0.08 µM.
With `CC(C)=CCC/C(C)=C/CC/C(C)=C/CCOCCCCCN1C[C@H](O)[C@@H](O)[C@H](O)[C@@H]1CO`, the figures for the IC50 (in assay [1]; at Beta-glucosidase; in assay [2]) were 50 µM, 0.1 µM and 2.5 µM, respectively.
Regarding `OC[C@H]1[C@@H](O)[C@H](O)[C@@H](O)CN1CCCCCOCc1ccccc1`, the figures for the IC50 (in assay [1]; at Beta-glucosidase; in assay [2]) were 10 µM, 0.003 µM and 0.2 µM, respectively.
The corresponding values for `OC[C@H]1[C@@H](O)[C@H](O)[C@@H](O)CN1CCCCCOCc1ccc2ccccc2c1` are 50 µM, 0.001 µM and 0.003 µM.
The matching figures for `OC[C@H]1[C@@H](O)[C@H](O)[C@@H](O)CN1CCCCCOCc1ccc2ccc3cccc4ccc1c2c34`: 15 µM, 0.001 µM and 0.003 µM.
In the case of `OC[C@H]1[C@@H](O)[C@H](O)[C@@H](O)CN1CCCCCOCc1ccc(-c2ccccc2)cc1`, the IC50 against Maltase-glucoamylase was above 100 µM; in assay [3], 70 µM.
On to `COc1ccccc1-c1ccc(COCCCCCN2C[C@H](O)[C@@H](O)[C@H](O)[C@H]2CO)cc1`, for which the IC50 against Beta-glucosidase came out at 0.003 µM.
On Beta-glucosidase, `OC[C@@H]1[C@@H](O)[C@H](O)[C@@H](O)CN1CCCCCOCc1ccc(-c2cccc(F)c2)cc1` came in with an IC50 of 0.001 µM.
For `OC[C@@H]1[C@@H](O)[C@H](O)[C@@H](O)CN1CCCCCOCc1ccc(-c2ccccc2F)cc1`, the IC50 in assay [2] was determined as 0.075 µM.
`OC[C@@H]1[C@@H](O)[C@H](O)[C@@H](O)CN1CCCCCOCc1ccc(-c2ccc3c(c2)OCO3)cc1`: the IC50 in assay [1] came out at 0.5 µM; against Beta-glucosidase it was 0.002 µM.
Take `OC[C@@H]1[C@@H](O)[C@H](O)[C@@H](O)CN1CCCCCOCc1ccc(-c2ccc3c(c2)OCCO3)cc1`: the IC50 came to 0.25 µM in assay [1], 0.03 µM on Beta-glucosidase and 0.04 µM in assay [2].
`OC[C@@H]1[C@@H](O)[C@H](O)[C@@H](O)CN1CCCCCOCc1ccc(-c2ccc3c(c2)OCCCO3)cc1` gave a half-maximal inhibitory concentration (IC50) against Beta-glucosidase of 0.015 µM.
The molecule `OC[C@@H]1[C@@H](O)[C@H](O)[C@@H](O)CN1CCCCCOCc1ccc(-c2cccnc2)cc1` displayed a half-maximal inhibitory concentration (IC50) in assay [2] of 2 µM.
As for `OC[C@@H]1[C@@H](O)[C@H](O)[C@@H](O)CN1CCCCCOCc1ccc(-c2cncnc2)cc1`, the IC50 in assay [1] stood at 10 µM; at Beta-glucosidase it was 0.025 µM; in assay [2], 2 µM.
For the molecule `OC[C@@H]1[C@@H](O)[C@H](O)[C@@H](O)CN1CCCCCOCc1ccccc1-c1ccccc1`, the half-inhibitory concentration (IC50) in assay [4] came out at 17 µM; against Maltase-glucoamylase, 1.5 µM; in assay [3], 0.2 µM.
The matching figures for `OC[C@@H]1[C@@H](O)[C@H](O)[C@@H](O)CN1CCCCCOCc1cccc(-c2ccccc2)c1`: 20 µM, 1.5 µM and 0.2 µM.
The corresponding values for `OC[C@@H]1[C@@H](O)[C@H](O)[C@@H](O)CN1CCCCCOCc1ccc(-c2ccccc2)cc1C(F)(F)F` are 50 µM, 8 µM and 1.5 µM.
The corresponding values for `C[C@H](OCCCCCN1C[C@H](O)[C@@H](O)[C@H](O)[C@@H]1CO)c1ccc(-c2ccccc2)cc1` are above 100 µM, above 100 µM and above 100 µM.
Regarding `C[C@@H](OCCCCCN1C[C@H](O)[C@@H](O)[C@H](O)[C@@H]1CO)c1ccc(-c2ccccc2)cc1`, the concentration for half-maximal inhibition (IC50) in assay [4] was 45 µM; against Maltase-glucoamylase it was above 100 µM; in assay [3], above 100 µM.
On to `OC[C@H]1[C@@H](O)[C@H](O)[C@@H](O)CN1CCCCCOCc1ccccc1-c1ccccc1`, for which the IC50 is 25 µM in assay [4], above 100 µM on Maltase-glucoamylase and 95 µM in assay [3].
The corresponding values for `OC[C@H]1[C@@H](O)[C@H](O)[C@@H](O)CN1CCCC(F)(F)COCc1ccc(-c2ccccc2)cc1` are 80 µM, above 100 µM and above 100 µM.
The corresponding values for `OC[C@H]1[C@@H](O)[C@H](O)[C@@H](O)CN1CCCCCOCc1ccc(-c2ccccc2)cc1C(F)(F)F` are 125 µM, above 100 µM and above 100 µM.
